Reference: article PMC9224512, “New Insights into the Determinants of Specificity in Human Type I Arginase: Generation of a Mutant That Is Only Active with Agmatine as Substrate” (International Journal of Molecular Sciences, 2022)
Substitutions are numbered along the chain they refer to.

Key:
[1] = target: T1, type I human arginase D181T (Homo sapiens, UniProt P05089, D181T); assay: Kinetic and inhibition studies, D181T mutant; assay type: biochemical; conditions: substrate arginine
T1 sequence (P05089 1-322 D181T): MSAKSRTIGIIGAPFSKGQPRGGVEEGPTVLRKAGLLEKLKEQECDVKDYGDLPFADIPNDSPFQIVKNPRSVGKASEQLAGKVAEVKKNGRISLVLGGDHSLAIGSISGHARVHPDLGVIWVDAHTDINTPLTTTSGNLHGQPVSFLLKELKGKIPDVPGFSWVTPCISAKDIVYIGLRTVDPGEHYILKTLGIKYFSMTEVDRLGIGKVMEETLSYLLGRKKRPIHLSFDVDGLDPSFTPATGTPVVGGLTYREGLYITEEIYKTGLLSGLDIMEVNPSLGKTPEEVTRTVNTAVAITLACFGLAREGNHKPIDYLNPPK
Protocol: (§1) Bacterial cultures were grown with shaking at 37 °C in Luria Broth media, in the presence of ampicillin (100 μg/mL). The wild-type and mutant human liver arginase cDNAs were directionally cloned into the pBluescript II KS(+) expression vector and then expressed in E. coli JM109, following induction with 1 mM isopropyl β-D-thiogalactopyranoside. The bacterial cells were disrupted by sonication on ice (5 × 30 s pulses), centrifuged for 20 min at 12,000× g, and the obtained supernatant was precipitated with ammonium sulfate (60% saturation). The pellet, collected by centrifugation at 12,000× g for 10 min, was re-suspended in buffer 5 mM Tris–HCl (pH 7.5) containing 2 mM MnCl2 and dialyzed for 6 h at 4 °C against the same buffer. After incubation with 5 mM MnCl2 for 10 min at 60 °C, the enzyme variants were purified as previously described. The purity of the enzymes was evaluated by SDS–PAGE stained by Coomassie blue and immunodetection using an anti- rat arginase I antibody.
(§2) The single, double, triple, and chimera variants of human arginase type I were obtained by PCR, using the QuickChange site-directed mutagenesis kit (Stratagene, La Jolla, CA, USA); the plasmid pBluescript II KS(+) containing the human liver arginase cDNA was used as template. To obtain the chimeric species of human arginase type I, serial mutations were made in each loop to be modified, using as template DNA the wild-type arginase gene or the previous done mutation, subcloned in the plasmid pBluescript II KS (+). Specifically, the residues present in the arginase structure were replaced by those corresponding to the agmatinase sequence of E. coli.
(§3) All assays were initiated by adding the enzyme to a previously equilibrated buffer with the substrate in solution (the concentrations of used substrates were between 0.2–3 fold the Km). Urea was determined by a colorimetric method with α-isonitrosopropiophenone. The protein concentrations were determined by the Bradford’s method, with bovine serum albumin as standard. Initial velocity and enzymatic inhibition experiments were performed in duplicate and repeated three times. The inhibitory patterns were initially determined by double reciprocal plots and re-plots of intercepts and slopes versus inhibitor concentrations. […] Velocities are expressed as μmol of urea/10 min.

human arginase D183N = tested on: human arginase D183N; design: method as in PMID 19093830; conditions: substrate arginine; cited from earlier work
[2] = target: T2, human arginase type I N130D-S137C (Homo sapiens, UniProt P05089, N130D/S137C); assay: Kinetic and inhibition studies, N130D-S137C mutant; assay type: biochemical
T2 sequence (P05089 1-322 N130D/S137C): T1 sequence (P05089 1-322 D181T) with N130D, S137C, T181D
Protocol: as §1, §2
All assays were initiated by adding the enzyme to a previously equilibrated buffer with the substrate in solution (the concentrations of used substrates were between 0.2–3 fold the Km). Urea was determined by a colorimetric method with α-isonitrosopropiophenone. The protein concentrations were determined by the Bradford’s method, with bovine serum albumin as standard. […]

arginase N130Y = tested on: arginase N130Y; design: method as in PMID 19093830; conditions: substrate arginine; cited from earlier work
[3] = target: T3, type I human arginase D181T/V182E + ins F (Homo sapiens, UniProt P05089, D181E/D181T/INS180T/V182E/V182F); assay: Kinetic and inhibition studies, D181T/V182E + ins F; assay type: biochemical; conditions: substrate arginine
T3 sequence (P05089 with tags, fused parts or gaps INS180T/D181E/V182F): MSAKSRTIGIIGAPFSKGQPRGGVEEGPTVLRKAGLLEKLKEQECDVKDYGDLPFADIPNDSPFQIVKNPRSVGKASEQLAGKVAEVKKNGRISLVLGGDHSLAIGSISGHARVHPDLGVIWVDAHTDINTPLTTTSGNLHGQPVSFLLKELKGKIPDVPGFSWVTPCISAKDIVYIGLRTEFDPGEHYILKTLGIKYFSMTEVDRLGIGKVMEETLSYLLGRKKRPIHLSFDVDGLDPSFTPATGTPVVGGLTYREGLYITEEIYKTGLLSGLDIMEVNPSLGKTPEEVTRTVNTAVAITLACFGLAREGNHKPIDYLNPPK
Protocol: as §1, §2, §3

arginase N130A = tested on: arginase N130A; design: method as in PMID 19093830; conditions: substrate arginine; cited from earlier work
[4] = target: T4, Chimera A1 (I129T/N130Y/T131A) of human arginase type I (Homo sapiens, UniProt P05089, I129T/N130Y/T131A); assay: Kinetic and inhibition studies, Chimera A1; assay type: biochemical
T4 sequence (P05089 1-322 I129T/N130Y/T131A): T1 sequence (P05089 1-322 D181T) with I129T, N130Y, T131A, T181D
Protocol: as §1, §2, §3

[5] = target: single, double and triple mutants (N130D, S137C, N139D) of human arginase type I; assay: Kinetic properties stated for all loop A mutants together; assay type: biochemical; conditions: all mutants of Table 1; substrate arginine; read-out: Ki for competitive inhibition by the ornithine product
Protocol: as §1
The single, double, triple, and chimera variants of human arginase type I were obtained by PCR, using the QuickChange site-directed mutagenesis kit (Stratagene, La Jolla, CA, USA); the plasmid pBluescript II KS(+) containing the human liver arginase cDNA was used as template. […]

[6] = substrate = labelled compound, pH 9.5, 2 mM Mn2+

N=C(N)NCCC[C@H](N)C(=O)O [Arginine, L-arginine]
kcat [1]: 191 ± 8 s⁻¹
Km ([1]; pH 9.5, 2 mM Mn2+): 5.3 ± 0.8 mM
increase in Km (human arginase D183N): 27 fold
reduction in kcat (human arginase D183N): 12%
kcat ([2]; substrate = labelled compound): 23 s⁻¹
Km [2, 6]: 6.5 mM
decrease in kcat (arginase N130Y): approximately 20 times
kcat [3]: 8.1 ± 1 s⁻¹
kcat, times lower than the wild-type arginase [3]: 24 times
Km ([3]; pH 9.5, 2 mM Mn2+): 20 ± 5 mM
increase of Km for arginine (arginase N130A): 50 fold
reduction of kcat (arginase N130A): 37%
kcat ([4]; substrate = labelled compound, n/a = no activity with the substrate): 6.2 ± 0.4 s⁻¹
Km [4, 6]: 2.5 ± 0.5 mM
arginase activity, % of the enzymatic activity of wild-type arginase ([4]; substrate arginine): 3.5%
decrease of catalytic constant (kcat) compared with wild-type enzyme ([4]; substrate arginine): approximately 30 times

NCCC[C@H](N)C(=O)O [Ornithine, L-ornithine]
Inhibition type [1]: Competitive
Kis [1]: 1.6 ± 0.3 mM
Ki ([2]; read-out: Ki^orn): 7.1 mM
Ki [5]: ~7 mM
Inhibition type [3]: Competitive
Kis [3]: 18 ± 6 mM
Inhibition type ([4]; substrate arginine): Competitive
Kis (Ki) ([4]; substrate arginine): 60 ± 2 mM
